Test results taken from patent US20230099293A1, “OGA INHIBITOR COMPOUNDS” (priority 2019, published 2023).
Values belong to the molecule of their own block, whether it stands above or below them.

Tests used:
[1] = molecular target: T1, recombinant human Meningioma Expressed Antigen 5 (MGEA5), also referred to as O-GlcNAcase (OGA) (Homo sapiens, UniProt O60502); experiment: OGA biochemical assay (inhibition of FM-GlcNAc hydrolysis, fluorescence); settings: for IC50: Enzymatic hOGA; for Emax: read-out: Enzymatic Emax (%)
T1 construct: Full length OGA enzyme was purchased at OriGene (cat #TP322411); purchased OriGene TP322411
T1 sequence (O60502 1-916): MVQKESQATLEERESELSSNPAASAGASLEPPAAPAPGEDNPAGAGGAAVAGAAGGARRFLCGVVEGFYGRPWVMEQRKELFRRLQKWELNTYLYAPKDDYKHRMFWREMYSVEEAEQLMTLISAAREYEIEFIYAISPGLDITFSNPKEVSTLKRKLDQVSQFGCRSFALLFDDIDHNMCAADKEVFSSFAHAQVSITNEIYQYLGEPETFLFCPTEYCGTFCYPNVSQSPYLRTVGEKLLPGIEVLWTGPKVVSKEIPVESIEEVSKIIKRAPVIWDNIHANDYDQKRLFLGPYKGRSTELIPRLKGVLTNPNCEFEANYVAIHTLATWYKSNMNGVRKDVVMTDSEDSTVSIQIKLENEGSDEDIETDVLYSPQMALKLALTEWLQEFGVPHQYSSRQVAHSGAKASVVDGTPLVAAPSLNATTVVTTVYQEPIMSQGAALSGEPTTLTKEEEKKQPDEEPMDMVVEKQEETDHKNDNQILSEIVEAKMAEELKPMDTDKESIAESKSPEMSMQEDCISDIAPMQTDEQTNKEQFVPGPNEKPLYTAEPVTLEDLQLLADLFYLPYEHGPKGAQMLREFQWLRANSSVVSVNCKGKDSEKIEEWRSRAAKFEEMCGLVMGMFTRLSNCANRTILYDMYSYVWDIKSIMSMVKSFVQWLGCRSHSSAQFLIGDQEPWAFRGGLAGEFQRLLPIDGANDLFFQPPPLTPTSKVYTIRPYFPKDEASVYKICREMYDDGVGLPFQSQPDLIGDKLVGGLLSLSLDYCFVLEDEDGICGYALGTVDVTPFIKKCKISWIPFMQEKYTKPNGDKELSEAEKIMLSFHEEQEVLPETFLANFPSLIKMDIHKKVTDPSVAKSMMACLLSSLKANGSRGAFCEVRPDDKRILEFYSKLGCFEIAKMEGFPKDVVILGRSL
Procedure: The hydrolysis FM-GlcNAc (Marker Gene technologies, cat #M1485) results in the formation of β-D-N-glucosamineacetate and fluorescein. The fluorescence of the latter can be measured at excitation wavelength 485 nm and emission wavelength 538 nm. An increase in enzyme activity results in an increase in fluorescence signal. Full length OGA enzyme was purchased at OriGene (cat #TP322411). The enzyme was stored in 25 mM Tris.HCl, pH 7.3, 100 mM glycine, 10% glycerol at −20° C. […] The assay was performed in 200 mM Citrate/phosphate buffer supplemented with 0.005% Tween-20. 35.6 g Na2HIPO42H2O (Sigma, #C0759) were dissolved in 1 L water to obtain a 200 mM solution. […] The buffer to stop the reaction consists of a 500 mM Carbonate buffer, pH 11.0. […] OGA was used at a 2 nM concentration and FM-GlcNAc at a 100 uM final concentration. Dilutions were prepared in assay buffer.
Plates were pre-incubated for 60 min at room temperature and then 2 μl FM-GlcNAc substrate mix added. […] Plates were briefly centrifuged for 1 min at 1000 rpm and incubate at room temperature for 6 h. To stop the reaction 5 μl STOP buffer were added and plates centrifuge again 1 min at 1000 rpm. Fluorescence was quantified in the Thermo Scientific Fluoroskan Ascent or the PerkinElmer EnVision with excitation wavelength 485 nm and emission wavelength 538 nm.
For analysis a best-fit curve is fitted by a minimum sum of squares method. From this an IC50 value and Hill coefficient was obtained. High control (no inhibitor) and low control (saturating concentrations of standard inhibitor) were used to define the minimum and maximum values.

hOGA = molecular target: T2, hOGA (Homo sapiens, UniProt O60502); experiment: OGA cellular assay (ICC detection of O-GlcNAcylated proteins in HEK293 cells inducible for P301L mutant human Tau); format: cell-based; parameters: Emax: dose or concentration left out as unconfirmed; settings: for EC50: Cellular hOGA; for Emax: HEK293, read-out: Cellular Emax (%)
T2 construct: endogenous in cells; host or cells: HEK293 cells inducible for P301L mutant human Tau (isoform 2N4R)
T2 sequence (O60502 1-916): T1 sequence (O60502 1-916)
Procedure: HEK293 cells inducible for P301L mutant human Tau (isoform 2N4R) were established at Janssen. Thiamet-G was used for both plate validation (high control) and as reference compound (reference EC50 assay validation). OGA inhibition is evaluated through the immunocytochemical (ICC) detection of O-GlcNAcylated proteins by the use of a monoclonal antibody (CTD110.6; Cell Signaling, #9875) detecting O-GlcNAcylated residues as previously described (Dorfmueller et al. 2010 Chemistry & biology, 17:1250). Inhibition of OGA will result in an increase of O-GlcNAcylated protein levels resulting in an increased signal in the experiment. Cell nuclei are stained with Hoechst to give a cell culture quality control and a rough estimate of immediate compounds toxicity, if any. ICC pictures are imaged with a Perkin Elmer Opera Phenix plate microscope and quantified with the provided software Perkin Elmer Harmony 4.1.
Cells were propagated in DMEM high Glucose (Sigma, #D5796) following standard procedures. 2 days before the cell assay cells are split, counted and seeded in Poly-D-Lysine (PDL) coated 96-wells (Greiner, #655946) plate at a cell density of 12,000 cells per cm^2 (4,000 cells per well) in 100 μl of Assay Medium (Low Glucose medium is used to reduce basal levels of GlcNAcylation) (Park et al. 2014 The Journal of biological chemistry 289:13519). At the day of compound test medium from assay plates was removed and replenished with 90 μl of fresh Assay Medium. 10 μl of compounds at a 10 fold final concentration were added to the wells. Plates were centrifuged shortly before incubation in the cell incubator for 6 hours. DMSO concentration was set to 0.2%. Medium is discarded by applying vacuum. For staining of cells medium was removed and cells washed once with 100 μl D-PBS (Sigma, #D8537). From next step onwards unless other stated assay volume was always 50 μl and incubation was performed without agitation and at room temperature. Cells were fixed in 50 μl of a 4% paraformaldehyde (PFA, Alpha aesar, #043368) PBS solution for 15 minutes at room temperature. […] Before analysis samples were washed 2 times manually for 5 minutes in ICC base buffer.
Imaging is performed using Perkin Elmer Phenix Opera using a water 20× objective and recording 9 fields per well. Intensity readout at 488 nm is used as a measure of O-GlcNAcylation level of total proteins in wells. To assess potential toxicity of compounds nuclei were counted using the Hoechst staining. IC50-values are calculated using parametric non-linear regression model fitting. As a maximum inhibition Thiamet Gat a 200 uM concentration is present on each plate. In addition, a concentration response of Thiamet G is calculated on each plate.

[2] = pIC50, Table 5, full length OGA 2 nM, FM-GlcNAc 100 uM, 6 h at room temperature
[3] = pEC50, Table 5, HEK293 P301L Tau cells, 6 hours incubation, O-GlcNAcylation readout

Structure (SMILES): CNC(=O)Cn1cnc2c(Nc3c(C)cc(C(F)(F)F)cc3C)nccc21 [Compound 4, 2-(4-((2,6-Dimethyl-4-(trifluoromethyl)phenyl)amino)-1H-imidazo[4,5-c]pyridin-1-yl)-N-methylacetamide]
IC50 [1, 2]: 3.39 nM
Emax [1]: 98%
EC50 (hOGA; [3]): 55 nM
Emax (hOGA): 101%
melting point: 275.1 °C

Structure (SMILES): CN(C)C(=O)Cn1cnc2c(Nc3c(Cl)cc(OC(F)(F)F)cc3Cl)nccc21 [Compound 7]
IC50 [1, 2]: 6.92 nM
Emax [1]: 102%
EC50 (hOGA; [3]): 372 nM
Emax (hOGA): 66%
melting point: 201.5 °C

Structure (SMILES): Cc1c(C(F)(F)F)nn(C)c1Nc1nccc2c1ncn2CC(=O)N(C)C [Compound 39]
IC50 [1, 2]: 631 nM
Emax [1]: 94%
EC50 (hOGA; [3]): > 1000 nM
Emax (hOGA): 12%
melting point: 240 °C

Structure (SMILES): CN(C)C(=O)Cn1cnc2c(Nc3c(Cl)cc(C(F)(F)F)cc3Cl)nccc21 [Compound 17]
IC50 [1, 2]: 16.2 nM
Emax [1]: 99%
EC50 (hOGA; [3]): 316 nM
Emax (hOGA): 77%
melting point: 238.4 °C

Structure (SMILES): CCc1cc(C(F)(F)F)cc(C)c1Nc1nccc2c1ncn2CC(=O)N(C)C [Compound 10]
IC50 [1, 2]: 9.33 nM
Emax [1]: 100%
EC50 (hOGA; [3]): 100 nM
Emax (hOGA): 100%
melting point: 211.6 °C

Structure (SMILES): COc1cccc(-n2nc(C)c(Nc3nccc4c3ncn4CC(=O)N(C)C)c2C)c1 [Compound 36]
IC50 [1, 2]: 29.5 nM
Emax [1]: 101%
EC50 (hOGA; [3]): 603 nM
Emax (hOGA): 55%
melting point: 179.7 °C

Structure (SMILES): Cc1cc(C(F)(F)F)cc(C)c1Nc1nccc2c1ncn2CC(=O)N(C)C1CC1 [Compound 52]
IC50 [1, 2]: 8.13 nM
Emax [1]: 102%
EC50 (hOGA; [3]): 138 nM
Emax (hOGA): 73%
melting point: 199.8 °C

Structure (SMILES): CCCCn1cnc2c(Nc3c(C)cc(F)cc3C)nccc21 [Compound 57]
IC50 [1, 2]: 53.7 nM
Emax [1]: 99%
EC50 (hOGA; [3]): 513 nM
Emax (hOGA): 62%
melting point: 184.45 °C

Structure (SMILES): CCN(C)C(=O)Cn1cnc2c(Nc3c(C)cc(C(F)(F)F)cc3C)nccc21 [Compound 63, 2-[4-[2,6-Dimethyl-4-(trifluoromethyl)anilino]imidazo[4,5-c]pyridin-1-yl]-N-ethyl-N-methyl-acetamide]
IC50 [1, 2]: 9.33 nM
Emax [1]: 98%
EC50 (hOGA; [3]): 89.1 nM
Emax (hOGA): 100%
melting point: 186.5 °C

Structure (SMILES): Cc1ccc(-n2nc(C)c(Nc3nccc4c3ncn4CC(=O)N(C)C)c2C)cc1C [Compound 42]
IC50 [1, 2]: 21.9 nM
Emax [1]: 93%
EC50 (hOGA; [3]): 295 nM
Emax (hOGA): 70%
melting point: 144.7 °C

melting point: 238.3 °C
Structure (SMILES): Cc1cc(C(F)(F)F)cc(F)c1Nc1nccc2c1ncn2CC(=O)N(C)CC(F)(F)F

Structure (SMILES): Cc1cc2c(ncn2CC(=O)N(C)C)c(Nc2c(C)cc(C(F)(F)F)cc2C)n1 [Compound 30]
IC50 [1, 2]: 5890 nM
Emax [1]: 55%
EC50 (hOGA; [3]): > 1000 nM
Emax (hOGA): 12%
melting point: 188.2 °C

Structure (SMILES): Cc1cc(C(F)(F)F)cc(C)c1Nc1nccc2c1ncn2-c1ccc(F)cn1 [Compound 60, N-(2,6-Dimethyl-4-(trifluoromethyl)phenyl)-1-(5-fluoropyridin-2-yl)-1H-imidazo[4,5-c]pyridin-4-amine]
IC50 [1, 2]: 117 nM
Emax [1]: 100%
EC50 (hOGA; [3]): 933 nM
Emax (hOGA): 44%
melting point: 186.5 °C

Structure (SMILES): Cc1cc(C(F)(F)F)cc(Cl)c1Nc1nccc2c1ncn2CC(C)(F)F [Compound 2]
IC50 [1, 2]: 6.03 nM
Emax [1]: 99%
EC50 (hOGA; [3]): 95.5 nM
Emax (hOGA): 87%

Structure (SMILES): Cc1cc(F)cc(F)c1Nc1nccc2c1ncn2CC(=O)N(C)C [Compound 26]
IC50 [1, 2]: 191 nM
Emax [1]: 98%
EC50 (hOGA; [3]): > 1000 nM
Emax (hOGA): 8%

Structure (SMILES): Cc1cc(C(F)(F)F)nc(C)c1Nc1nccc2c1ncn2CC(=O)N1CCC1 [Compound 51]
IC50 [1, 2]: 1480 nM
Emax [1]: 82%
EC50 (hOGA; [3]): > 1000 nM
Emax (hOGA): 15%

Structure (SMILES): CCCCn1cnc2c(Nc3c(Cl)cncc3Cl)nccc21 [Compound 58]
IC50 [1, 2]: 525 nM
Emax [1]: 95%

Structure (SMILES): Cc1cc(C(F)(F)F)cc(C)c1Nc1nccc2c1ncn2-c1ncn(C)c1C [Compound 83]
IC50 ([1]; pIC50, second table, averaged values over several runs, obtained after recalibration of the equipment): 1170 nM
EC50 (hOGA; pEC50, second table, averaged values over several runs, obtained after recalibration of the equipment): > 1000 nM

Structure (SMILES): Cc1ccnc(C(C)C)c1Nc1nccc2c1ncn2CC(C)(F)F [Compound 1, 1-(2,2-Difluoropropyl)-N-(2-isopropyl-4-methylpyridin-3-yl)-1H-imidazo[4,5-c]pyridin-4-amine]
IC50 [1, 2]: 5.13 nM
Emax [1]: 101%
EC50 (hOGA; [3]): 45.7 nM
Emax (hOGA): 81%

Structure (SMILES): CCCCn1ncc2c(Nc3c(C)cncc3C)nccc21 [Compound 68]
IC50 [1, 2]: 7590 nM
Emax [1]: 61%

melting point: 212.2 °C
Structure (SMILES): [2H]C([2H])([2H])N(C)C(=O)Cn1cnc2c(Nc3c(C)cc(C(F)(F)F)cc3C)nccc21

Structure (SMILES): CCCCn1ncc2c(Nc3c(Cl)cncc3Cl)nccc21 [Compound 67]
IC50 [1, 2]: 513 nM
Emax [1]: 94%
EC50 (hOGA; [3]): > 1000 nM
Emax (hOGA): 6%

melting point: 219.8 °C
Structure (SMILES): Cc1cc(C(F)(F)F)cc(F)c1Nc1nccc2c1ncn2CC(=O)N(C)C1CC1
